Measurements reported in ChEMBL document CHEMBL3112560 (Bioorg Med Chem Lett, 2014).

Legend:
[1] = Inhibition of VGLUT (unknown origin); set-up: species or system Homo sapiens
Rattus norvegicus = species: Rattus norvegicus; assay: Inhibition of VGLUT in rat brain assessed as [3H]-L-Glu uptake into synaptic vesicles at 250 uM relative to control; type: tissue-based
[2] = Competitive inhibition of VGLUT-mediated [3H]-L-Glu uptake into synaptic vesicles in rat brain by Lineweaver-Burk plot analysis; type: tissue-based
[3] = Inhibition of VGLUT-mediated [3H]-L-Glu uptake into synaptic vesicles in rat brain; type: tissue-based

Row | Structure (SMILES) | Ki [1] [µM] | inhibition (Rattus norvegicus) [%] | Ki [2] [µM] | IC50 [3] [µM]
1 | Cc1cc(-c2ccc(/N=N/c3c(S(=O)(=O)O)cc4cc(S(=O)(=O)O)cc(N)c4c3O)c(C)c2)ccc1/N=N/c1c(S(=O)(=O)O)cc2cc(S(=O)(=O)O)cc(N)c2c1O [TRYPAN BLUE] | 0.05 | – | – | –
2 | N[C@@]1(C(=O)O)CC[C@@H](C(=O)O)C1 | 700 | – | – | –
3 | C[C@]12CC[C@@H]3c4ccc(O)cc4CC[C@H]3[C@@H]1CCC2=O | – | 98 | – | –
4 | CC(=O)[C@H]1CC[C@H]2[C@@H]3CC[C@@H]4C[C@@H](OS(=O)(=O)O)CC[C@]4(C)[C@H]3CC[C@]12C | – | 15 | 22 | 42
5 | CC(=O)[C@H]1CC[C@H]2[C@@H]3CC=C4C[C@@H](O)CC[C@]4(C)[C@H]3CC[C@]12C | – | 100 | – | –
6 | CC(=O)C1CCC2C3CC=C4CC(OS(=O)(=O)O)CCC4(C)C3CCC12C (centres undefined) | – | 31 | – | –
7 | O=C(O)c1cc(C(=O)O)c2ccc3cc4ccccc4cc3c2n1 | – | 26 | – | 70
8 | O=C(O)c1cc(C(=O)O)c2c(ccc3cc4ccccc4cc32)n1 | – | 17 | – | 71
9 | CC(=O)O[C@H]1CC[C@@]2(C)C(=CC[C@H]3[C@@H]4CC[C@H](C(C)=O)[C@@]4(C)CC[C@@H]32)C1 | – | 86 | – | –
10 | C[C@]12CC[C@@H]3c4ccc(OC(=O)CCC(=O)O)cc4CC[C@H]3[C@@H]1CCC2=O | – | 109 | – | –
